Assay: Reference Example: half-life period and stabilization degree from QH residual rate after 14 days storage
Type: physicochemical
Conditions: for Half-life Period: number of days required for the QH residual rate to reach 50%, from storage at 25° C. and 60% RH for 14 days
Experimental: The reduced coenzyme Q10 Form I crystal (Form I-crystal), the particulate solid composition produced using the reduced coenzyme Q10 Form I crystal in the same manner as in Comparative Example 1 (Form I-stabilized composition), the reduced coenzyme Q10 Form II crystal (Form II-crystal), and the particulate solid composition produced using the reduced coenzyme Q10 Form II crystal in the same manner as in Example 1 (A-1) (Form II-stabilized composition) were stored at 25° C. and 60% RH for 14 days. From the QH residual rate after storage, the half-life period, which is the number of days required for the QH residual rate to reach 50%, and the stabilization degree, which is the ratio of the half-life period of the stabilized composition to the half-life period of each crystal, were determined and shown in Table 17.

Row | Compound | Half-life Period [days] | stability relative to the Form I crystal (25° C. and 60% RH) [times]
1 | COc1c(O)c(C)c(C/C=C(\C)CC/C=C(\C)CC/C=C(\C)CC/C=C(\C)CC/C=C(\C)CC/C=C(\C)CC/C=C(\C)CC/C=C(\C)CC/C=C(\C)CCC=C(C)C)c(O)c1OC [Form I - crystal, reduced coenzyme Q10] | 14 | –
2 | COc1c(O)c(C)c(C/C=C(\C)CC/C=C(\C)CC/C=C(\C)CC/C=C(\C)CC/C=C(\C)CC/C=C(\C)CC/C=C(\C)CC/C=C(\C)CC/C=C(\C)CCC=C(C)C)c(O)c1OC [Form II - crystal, reduced coenzyme Q10] | 189 | 14
